What was measured:
[1] = Salt spray exposure (ASTM B-117) of scribed aircraft primers containing the inhibitor pigment; details: 2000 hours salt spray, scribe area
Procedure: The test was performed in a typical two component aircraft primer formulation, specifically recommended for aluminum protection. […] By visual examination of their physical state at the end of the test period, the coatings' corrosion inhibitor performance, considered directly proportional to the tested pigment components' corrosion inhibitive activity, was qualified. The scribed area was especially examined and the absence or presence of corrosion products, respectively, was interpreted as display of, or absence of, the respective corrosion inhibitor pigment's “throw power”. It will be apparent that the “throw power” is the discriminative characteristic of effective corrosion inhibitor pigments.

[2] = pH of saturated extract / leachate of the pigment; type: physicochemical
[3] = Solubility in water of the pigment; type: physicochemical
[4] = Salt spray exposure (ASTM B-117) of scribed coil primers, service life of coating; details: on galvanized steel, relative to Sr-doped amorphous silica
Procedure: Steel Co.), at 0.6-0.7 mil dry film thickness, aged for at least 2 (two) days at room temperature, scribed and subsequently subjected to salt spray exposure (according to ASTM B-117). The scribes were applied in the typical cross form, and, in order to cut through the protective galvanic zinc coating from the area of the scribes, at appropriate depth. During salt spray exposure, the coatings' physical state was assessed periodically by visual examination. […] Service life of a coating is considered directly proportional to the related pigments' or additives' corrosion inhibitor performance, which is conveniently qualified by Ei, the Inhibitor Efficiency Index, defined as: […]

Q: With `Sc1nnc(S)s1` [DMTD, 2,5-dimercapto-1,3,4 thiadiazole] as the compound, how does the “"Throw Power" Observed” value [1] read?
A: displayed throw power

Q: Which “pH (saturated extract)” value [2] does the source give for `[S-]c1nnc(S)s1.[S-]c1nnc(S)s1.[Zn+2]` [Example 1, Zn(DMTD)2] here?
A: 4.5-5.0

Q: And the “solubility in water, at 24° C.” value [3]?
A: 0.4 mg/mL

Q: For `C1CCC(NC2CCCCC2)CC1.S=c1[nH]c(=S)[nH]c(=S)[nH]1` [Example 7, Di-cyclohexyl mono-ammonium salt of trithiocyanuric acid], which “extension of service life of coil coatings over Sr-doped amorphous silica” value [4] is on record?
A: 200%
